According to patent US4160829A, “Antibacterial 1,2,4-oxadiazolylacetamido cephalosporins” (Gist-Brocades N.V., priority 1972, dated 1979):
Values after ≈ are worked out from the molar mass of the structure shown.

What was measured:
Prot.morg. 2241 = test: agar serial dilution test; assay type: cell-based; conditions: 24 h, agar serial dilution, 24 hours, 37° C.; read-out: minimal inhibitory concentration (MIC)
Staph.aureus A 2001 [1] = test: agar serial dilution test; assay type: cell-based, Staphylococcus aureus; conditions: Staphylococcus aureus, A2001, 24 h, agar serial dilution, 24 hours, 37° C.; read-out: minimal inhibitory concentration (MIC)
Staph.aureus A 2000 [2] = test: micro serial dilution test; assay type: cell-based, Staphylococcus aureus; conditions: Staphylococcus aureus, A2000, 18 h, micro serial dilution (in brackets), about 18 hours, 30° C. or 37° C.; read-out: minimal inhibitory concentration (MIC)
Staph.aureus A 2000 [3] = test: agar serial dilution test; assay type: cell-based, Staphylococcus aureus; conditions: Staphylococcus aureus, A2000, 24 h, agar serial dilution, 24 hours, 37° C.; read-out: minimal inhibitory concentration (MIC)
Salm.dubl. P 43 = test: agar serial dilution test; assay type: cell-based, Salmonella dublin; conditions: Salmonella enterica; agar serial dilution, 24 hours, 37° C.; read-out: minimal inhibitory concentration (MIC)
Dipl.pneum. L 54 = test: agar serial dilution test; assay type: cell-based, Diplococcus pneumoniae; conditions: Streptococcus pneumoniae; agar serial dilution, 24 hours, 37° C.; read-out: minimal inhibitory concentration (MIC)
Salm.typh. R 127 = test: agar serial dilution test; assay type: cell-based; conditions: 24 h, 37° C., read-out: minimal inhibitory concentration (MIC)
Pseud.aerug. 2396 = test: agar serial dilution test; assay type: cell-based; conditions: agar serial dilution, 24 hours, 37° C.; read-out: minimal inhibitory concentration (MIC)
Kleb.pneum. A 809 = test: agar serial dilution test; assay type: cell-based, Klebsiella pneumoniae; conditions: Klebsiella pneumoniae; agar serial dilution, 24 hours, 37° C.; read-out: minimal inhibitory concentration (MIC)
Pseud.aerug. H 10 = test: agar serial dilution test; assay type: cell-based; conditions: agar serial dilution, 24 hours, 37° C.; read-out: minimal inhibitory concentration (MIC)
Bac.Subt.ATCC 6633 = test: agar serial dilution test; assay type: cell-based, Bacillus subtilis; conditions: Bacillus subtilis, ATCC6633, 24 h, agar serial dilution, 24 hours, 37° C.; read-out: minimal inhibitory concentration (MIC)
Strep. faec. L 80 = test: agar serial dilution test; assay type: cell-based, Streptococcus faecalis; conditions: Enterococcus faecalis; agar serial dilution, 24 hours, 37° C.; read-out: minimal inhibitory concentration (MIC)
Esch.coli U 20 = test: agar serial dilution test; assay type: cell-based, Escherichia coli; conditions: Escherichia coli, U20; agar serial dilution, 24 hours, 37° C.; read-out: minimal inhibitory concentration (MIC)
Staph.aureus A 355 [4] = test: agar serial dilution test; conditions: Staphylococcus aureus, A355, 24 h, read-out: minimal inhibitory concentration (MIC), agar serial dilution, 24 hours, 37° C.; penicillinase-producing strain
Prot.mirab. L 93 = test: agar serial dilution test; assay type: cell-based, Proteus mirabilis; conditions: Proteus mirabilis; agar serial dilution, 24 hours, 37° C.; read-out: minimal inhibitory concentration (MIC)
Staph.aureus A 321 = test: agar serial dilution test; assay type: cell-based, Staphylococcus aureus; conditions: Staphylococcus aureus, A321, 24 h, agar serial dilution, 24 hours, 37° C.; read-out: minimal inhibitory concentration (MIC)
[5] = test system: Pseud.aerug. Wyeth A 1058; test: agar serial dilution test; assay type: cell-based; conditions: agar serial dilution, 24 hours, 37° C.; read-out: minimal inhibitory concentration (MIC)
Prot.mirab. H 3 = test: agar serial dilution test; assay type: cell-based, Proteus mirabilis; conditions: Proteus mirabilis; agar serial dilution, 24 hours, 37° C.; read-out: minimal inhibitory concentration (MIC)
Past.multo. A 723 = test: agar serial dilution test; assay type: cell-based, Pasteurella multocida; conditions: Pasteurella multocida; agar serial dilution, 24 hours, 37° C.; read-out: minimal inhibitory concentration (MIC)
Staph.aureus A 2001 [6] = test: micro serial dilution test; assay type: cell-based, Staphylococcus aureus; conditions: Staphylococcus aureus, A2001, 18 h, micro serial dilution (in brackets), about 18 hours, 30° C. or 37° C.; read-out: minimal inhibitory concentration (MIC)
Staph.aureus A 355 [7] = test: micro serial dilution test; assay type: cell-based, Staphylococcus aureus; conditions: Staphylococcus aureus, A355; micro serial dilution (in brackets), about 18 hours, 30° C. or 37° C.; penicillinase-producing strain; read-out: minimal inhibitory concentration (MIC)
Prot.mirab. A 1200 = test: agar serial dilution test; assay type: cell-based, Proteus mirabilis; conditions: Proteus mirabilis, 24 h, agar serial dilution, 24 hours, 37° C.; read-out: minimal inhibitory concentration (MIC)
Prot.rettg. A 821 [8] = test: micro serial dilution test; assay type: cell-based, Proteus rettgeri; conditions: Providencia rettgeri; micro serial dilution (in brackets), about 18 hours, 30° C. or 37° C.; read-out: minimal inhibitory concentration (MIC)
Haem.infl. A 1030 = test: micro serial dilution test; assay type: cell-based; conditions: 18 h, micro serial dilution (in brackets), about 18 hours, 30° C. or 37° C.; read-out: minimal inhibitory concentration (MIC)
Shig.equir. T 3 = test: agar serial dilution test; assay type: cell-based; conditions: 24 h, 37° C., read-out: minimal inhibitory concentration (MIC)
Prot.rettg. A 821 [9] = test: agar serial dilution test; assay type: cell-based, Proteus rettgeri; conditions: Providencia rettgeri, 24 h, agar serial dilution, 24 hours, 37° C.; read-out: minimal inhibitory concentration (MIC)
Strep.haem. A 266 = test: micro serial dilution test; assay type: cell-based, Streptococcus haemolyticus; conditions: Streptococcus; micro serial dilution (in brackets), about 18 hours, 30° C. or 37° C.; read-out: minimal inhibitory concentration (MIC)
Bruc.melit. A 488 = test: microbe, parasite or virus in culture; assay type: cell-based; conditions: Brucella melitensis, 24 h, read-out: minimal inhibitory concentration (MIC)

Row | Structure (SMILES) | MIC (Prot.morg. 2241) [µg/mL] | MIC (Staph.aureus A 2001 [1]) [µg/mL] | MIC (Staph.aureus A 2000 [2]) [µg/mL] | MIC (Staph.aureus A 2000 [3]) [µg/mL] | MIC (Salm.dubl. P 43) [µg/mL] | MIC (Dipl.pneum. L 54) [µg/mL] | MIC (Salm.typh. R 127) [µg/mL] | MIC (Pseud.aerug. 2396) [µg/mL] | MIC (Kleb.pneum. A 809) [µg/mL] | MIC (Pseud.aerug. H 10) [µg/mL] | MIC (Bac.Subt.ATCC 6633) [µg/mL] | MIC (Strep. faec. L 80) [µg/mL] | MIC (Esch.coli U 20) [µg/mL] | MIC (Staph.aureus A 355 [4]) [µg/mL] | MIC (Prot.mirab. L 93) [µg/mL] | MIC (Staph.aureus A 321) [µg/mL] | MIC [5] [µg/mL] | MIC (Prot.mirab. H 3) [µg/mL] | MIC (Past.multo. A 723) [µg/mL] | MIC (Staph.aureus A 2001 [6]) [µg/mL] | other results
1 | Cc1nnc(SCC2=C(C(=O)O)N3C(=O)[C@@H](NC(=O)Cn4cnnn4)[C@H]3SC2)s1 [Cephazolin, reference compound] | 25 (≈ 55 µM) | 0.5 (≈ 1.1 µM) | 0.9 (≈ 1.98 µM) | 0.75 (≈ 1.65 µM) | 1.5 (≈ 3.3 µM) | 0.25 (≈ 0.55 µM) | 3 (≈ 6.6 µM) | > 100 | 1.5 (≈ 3.3 µM) | > 100 | 0.25 (≈ 0.55 µM) | 12.5 (≈ 27.5 µM) | 1.5 (≈ 3.3 µM) | 1.5 (≈ 3.3 µM) | 1.5 (≈ 3.3 µM) | 0.25 (≈ 0.55 µM) | > 100 | 6 (≈ 13.2 µM) | 1.5 (≈ 3.3 µM) | 0.45 (≈ 0.99 µM) | MIC (Staph.aureus A 355 [7]): 0.6 µg/mL (≈ 1.32 µM); MIC (Prot.mirab. A 1200): 6 µg/mL (≈ 13.2 µM); MIC (Prot.rettg. A 821 [8]): 1.2 µg/mL (≈ 2.64 µM)
2 | CCc1noc(CC(=O)N[C@@H]2C(=O)N3[C@@H]2SC(C)(C)[C@@H]3C(=O)O)n1 [Example 11G, sodium 6-[(3-ethyl-1,2,4-oxadiazol-5-yl)-acetamido]-penicillanate H2 O] | > 100 | 1 | 23 | 1.5 | 12.5 | 0.25 | 25 | > 100 | > 100 | > 100 | 0.03 | 3 | 100 | 3 | 12.5 | 0.12 | > 100 | > 100 | 1 | 3.7 | MIC (Haem.infl. A 1030): 125 µg/mL; MIC (Shig.equir. T 3): 10 µg/mL; MIC (Prot.rettg. A 821 [9]): 3 µg/mL; MIC (Strep.haem. A 266): 0.5 µg/mL; MIC (Staph.aureus A 355 [7]): 30 µg/mL; MIC (Bruc.melit. A 488): 1.5 µg/mL; MIC (Prot.mirab. A 1200): 100 µg/mL
